Data from PubChem BioAssay (NCI).
Several values for one entry are separate records, joined by “and”; a condition that tells them apart may be missing. Identical values can stand only once.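 Assay format: 96-well plates, 48-hour exposure. GI50 is the concentration that inhibits growth by half. The concentration for full growth arrest is given as TGI.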

How the values were obtained:
Experiment in all cases: growth of human tumour cells (NCI), 48 h
786-0 renal = tested on: 786-0 renal
A498 renal = tested on: A498 renal
A549 NSCLC = tested on: A549 NSCLC
ACHN renal = tested on: ACHN renal
BT-549 breast = tested on: BT-549 breast
CAKI-1 renal = tested on: CAKI-1 renal
CCRF-CEM leukemia = tested on: CCRF-CEM leukemia
COLO 205 colon = tested on: COLO 205 colon
DU-145 prostate = tested on: DU-145 prostate
EKVX NSCLC = tested on: EKVX NSCLC
HCC-2998 colon = tested on: HCC-2998 colon
HCT-116 colon = tested on: HCT-116 colon
HCT-15 colon = tested on: HCT-15 colon
HL-60(TB) leukemia = tested on: HL-60(TB) leukemia
HOP-62 NSCLC = tested on: HOP-62 NSCLC
HOP-92 NSCLC = tested on: HOP-92 NSCLC
HS 578T breast = tested on: HS 578T breast
HT29 colon = tested on: HT29 colon
IGROV1 ovarian = tested on: IGROV1 ovarian
K-562 leukemia = tested on: K-562 leukemia
KM12 colon = tested on: KM12 colon
LOX IMVI melanoma = tested on: LOX IMVI melanoma
M14 melanoma = tested on: M14 melanoma
MALME-3M melanoma = tested on: MALME-3M melanoma
MCF7 breast = tested on: MCF7 breast
MDA-MB-231 breast = tested on: MDA-MB-231 breast
MDA-MB-435 = tested on: MDA-MB-435
MDA-N = tested on: MDA-N
MOLT-4 leukemia = tested on: MOLT-4 leukemia
NCI-H226 lung = tested on: NCI-H226 lung
NCI-H23 lung = tested on: NCI-H23 lung
NCI-H460 lung = tested on: NCI-H460 lung
NCI-H522 lung = tested on: NCI-H522 lung
NCI/ADR-RES ovarian = tested on: NCI/ADR-RES ovarian
OVCAR-3 ovarian = tested on: OVCAR-3 ovarian
OVCAR-4 ovarian = tested on: OVCAR-4 ovarian
OVCAR-5 ovarian = tested on: OVCAR-5 ovarian
OVCAR-8 ovarian = tested on: OVCAR-8 ovarian
PC-3 prostate = tested on: PC-3 prostate
RPMI-8226 leukemia = tested on: RPMI-8226 leukemia
RXF 393 renal = tested on: RXF 393 renal
SF-268 CNS = tested on: SF-268 CNS
SF-295 CNS = tested on: SF-295 CNS
SF-539 CNS = tested on: SF-539 CNS
SK-MEL-2 melanoma = tested on: SK-MEL-2 melanoma
SK-MEL-28 melanoma = tested on: SK-MEL-28 melanoma
SK-MEL-5 melanoma = tested on: SK-MEL-5 melanoma
SK-OV-3 ovarian = tested on: SK-OV-3 ovarian
SN12C renal = tested on: SN12C renal
SNB-19 CNS = tested on: SNB-19 CNS
SNB-75 CNS = tested on: SNB-75 CNS
SR leukemia = tested on: SR leukemia
SW-620 colon = tested on: SW-620 colon
T-47D breast = tested on: T-47D breast
TK-10 renal = tested on: TK-10 renal
U251 CNS = tested on: U251 CNS
UACC-257 melanoma = tested on: UACC-257 melanoma
UACC-62 melanoma = tested on: UACC-62 melanoma
UO-31 renal = tested on: UO-31 renal

For `CC(=O)O[C@@H]1c2c(c3c(=O)c4cccc(O)c4c(=O)c=3c2=[N+]=[N-])[C@H](OC(C)=O)[C@@H](OC(C)=O)[C@]1(C)O`, the GI50 (786-0 renal) was 221 nM, the TGI (786-0 renal) was 944 nM and 548 nM and the GI50 (A498 renal) was 1340 nM. The TGI (A498 renal) was 1820 nM and 3020 nM, the GI50 (A549 NSCLC) was 51.8 nM and the TGI (A549 NSCLC) was 1160 nM and 228 nM. The GI50 (ACHN renal) was 161 nM, the TGI (ACHN renal) was 374 nM and 300 nM and the TGI (BT-549 breast) was 1330 nM. For the same compound, the GI50 (CAKI-1 renal) was 182 nM, the TGI (CAKI-1 renal) was 1040 nM and 374 nM and the TGI (CCRF-CEM leukemia) was 63.2 nM. The GI50 (COLO 205 colon) was 605 nM and 160 nM, the TGI (COLO 205 colon) was 1290 nM and 296 nM and the GI50 (DU-145 prostate) was 295 nM. The TGI (DU-145 prostate) was 1050 nM and 1170 nM, the GI50 (EKVX NSCLC) was 122 nM and the TGI (EKVX NSCLC) was 1380 nM and 663 nM. For the same compound, the GI50 (HCC-2998 colon) was 358 nM, the TGI (HCC-2998 colon) was 522 nM and 1220 nM and the GI50 (HCT-116 colon) was 271 nM. For the same compound, the TGI (HCT-116 colon) was 617 nM and 890 nM, the GI50 (HCT-15 colon) was 135 nM and the TGI (HCT-15 colon) was 476 nM and 298 nM. For the same compound, the GI50 (HL-60(TB) leukemia) was 172 nM, the TGI (HOP-62 NSCLC) was 1370 nM and 1980 nM and the GI50 (HOP-92 NSCLC) was 172 nM. For the same compound, the TGI (HOP-92 NSCLC) was 1840 nM and 355 nM, the GI50 (HS 578T breast) was 575 nM and the TGI (HS 578T breast) was 881 nM and 3540 nM. For the same compound, the GI50 (HT29 colon) was 135 nM and 113 nM, the TGI (HT29 colon) was 605 nM and 265 nM and the GI50 (IGROV1 ovarian) was 300 nM. For the same compound, the TGI (IGROV1 ovarian) was 987 nM and 1150 nM, the GI50 (K-562 leukemia) was 90.9 nM and the TGI (K-562 leukemia) was 3100 nM and 444 nM. The GI50 (KM12 colon) was 270 nM, the TGI (KM12 colon) was 914 nM and 900 nM and the TGI (LOX IMVI melanoma) was 413 nM and 275 nM. The GI50 (M14 melanoma) was 293 nM, the TGI (M14 melanoma) was 992 nM and 357 nM and the GI50 (MALME-3M melanoma) was 269 nM. For the same compound, the TGI (MALME-3M melanoma) was 929 nM and 972 nM, the GI50 (MCF7 breast) was 142 nM and the TGI (MCF7 breast) was 1110 nM and 291 nM. The GI50 (MDA-MB-231 breast) was 335 nM, the TGI (MDA-MB-231 breast) was 1460 nM and 1480 nM and the GI50 (MDA-MB-435) was 270 nM. For the same compound, the TGI (MDA-MB-435) was 1420 nM and 880 nM, the GI50 (MDA-N) was 235 nM and the TGI (MDA-N) was 1050 nM and 733 nM. The GI50 (MOLT-4 leukemia) was 67.5 nM, the TGI (MOLT-4 leukemia) was 275 nM and 358 nM and the GI50 (NCI-H226 lung) was 617 nM. The TGI (NCI-H226 lung) was 1450 nM and 2180 nM, the GI50 (NCI-H23 lung) was 411 nM and the TGI (NCI-H23 lung) was 1770 nM and 1590 nM. For the same compound, the GI50 (NCI-H460 lung) was 149 nM, the TGI (NCI-H460 lung) was 1900 nM and 352 nM and the GI50 (NCI-H522 lung) was 69.3 nM. For the same compound, the TGI (NCI-H522 lung) was 776 nM and 201 nM, the TGI (NCI/ADR-RES ovarian) was 658 nM and the GI50 (OVCAR-3 ovarian) was 407 nM. The TGI (OVCAR-3 ovarian) was 1230 nM and 1400 nM, the TGI (OVCAR-4 ovarian) was 4320 nM and 2160 nM and the GI50 (OVCAR-5 ovarian) was 613 nM. For the same compound, the TGI (OVCAR-5 ovarian) was 1230 nM and 1350 nM, the GI50 (OVCAR-8 ovarian) was 117 nM and the TGI (OVCAR-8 ovarian) was 770 nM and 461 nM. The GI50 (PC-3 prostate) was 236 nM, the TGI (PC-3 prostate) was 1140 nM and 1000 nM and the TGI (RPMI-8226 leukemia) was 361 nM and 394 nM. For the same compound, the GI50 (RXF 393 renal) was 147 nM, the TGI (RXF 393 renal) was 1280 nM and 296 nM and the GI50 (SF-268 CNS) was 391 nM. For the same compound, the TGI (SF-268 CNS) was 914 nM and 1670 nM, the GI50 (SF-295 CNS) was 785 nM and the TGI (SF-295 CNS) was 1500 nM and 1560 nM. The GI50 (SF-539 CNS) was 162 nM, the TGI (SF-539 CNS) was 1140 nM and 316 nM and the GI50 (SK-MEL-2 melanoma) was 495 nM. The TGI (SK-MEL-2 melanoma) was 1630 nM and 1180 nM, the GI50 (SK-MEL-28 melanoma) was 829 nM and the TGI (SK-MEL-28 melanoma) was 1510 nM and 2280 nM. For the same compound, the GI50 (SK-MEL-5 melanoma) was 112 nM, the TGI (SK-MEL-5 melanoma) was 1180 nM and 273 nM and the GI50 (SK-OV-3 ovarian) was 1010 nM. The TGI (SK-OV-3 ovarian) was 2110 nM and 2000 nM, the GI50 (SN12C renal) was 236 nM and 85.1 nM and the TGI (SN12C renal) was 815 nM and 288 nM. The GI50 (SNB-19 CNS) was 689 nM, the TGI (SNB-19 CNS) was 2350 nM and 3510 nM and the GI50 (SNB-75 CNS) was 582 nM. The TGI (SNB-75 CNS) was 851 nM and 1690 nM, the GI50 (SR leukemia) was 58.2 nM and the TGI (SR leukemia) was 370 nM and 360 nM. For the same compound, the GI50 (SW-620 colon) was 216 nM, the TGI (SW-620 colon) was 1220 nM and the GI50 (T-47D breast) was 132 nM and 317 nM. The TGI (T-47D breast) was 649 nM and 1390 nM, the GI50 (TK-10 renal) was 191 nM and the TGI (TK-10 renal) was 1140 nM and 365 nM. For the same compound, the GI50 (U251 CNS) was 532 nM and 101 nM, the TGI (U251 CNS) was 1140 nM and 222 nM and the GI50 (UACC-257 melanoma) was 295 nM. For the same compound, the TGI (UACC-257 melanoma) was 1400 nM and 815 nM, the GI50 (UACC-62 melanoma) was 297 nM and the TGI (UACC-62 melanoma) was 1350 nM and 1020 nM. The GI50 (UO-31 renal) was 167 nM and the TGI (UO-31 renal) was 1190 nM and 352 nM.
